# Test results as given in patent US8937078B2, “Quinazolinones as prolyl hydroxylase inhibitors” (Janssen Pharmaceutica NV, priority 2009, dated 2015).
# Assays:
# human PHD2 (PHD2181-417) = molecular target: T1, human PHD2 (PHD2181-417) (Homo sapiens, UniProt Q9GZT9); experiment: PHD enzymatic assay ([14C]-succinic acid production); format: biochemical; details: PHD2181-417, HIF-1α peptide 10 μM, average of results; read-out: Enzyme pIC50 (converted)
# T1 construct: Smt (SUMO) tag (cleaved yes); made in house; host or cells: E. coli BL21 (pBAD vector)
# Method in brief: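 Activity measured as [14C]-succinic acid formed from [5-14C]-2-oxoglutarate over 10 minutes, with peptide substrate at 10 μM, in Tris-HCl pH 7.5 buffer containing catalase, DTT and ascorbate. Unreacted oxoglutarate removed by DNP derivatisation; supernatant beta-counted.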
# Hep-3B cells = experiment: Cellular assay: erythropoietin secretion in Hep-3B cells; format: cell-based, human; details: Homo sapiens, Hep3B, 100 μM compound, 24 hours, percent of EPO secretion relative to assay control compound 7-[(4-Chloro-phenyl)-(5-methyl-isoxazol-3-ylamino)-methyl]-quinolin-8-ol, read-out: Cellular % EPO Stimulation
# Method in brief: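 Hep-3B cells in DMEM with 10% FBS, treated 24 h after plating with compounds at 100 μM final for a further 24 h. Secreted EPO in supernatant measured by MSD electrochemiluminescence sandwich immunoassay with anti-EPO detection antibody.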
# T1 sequence (Q9GZT9 181-417): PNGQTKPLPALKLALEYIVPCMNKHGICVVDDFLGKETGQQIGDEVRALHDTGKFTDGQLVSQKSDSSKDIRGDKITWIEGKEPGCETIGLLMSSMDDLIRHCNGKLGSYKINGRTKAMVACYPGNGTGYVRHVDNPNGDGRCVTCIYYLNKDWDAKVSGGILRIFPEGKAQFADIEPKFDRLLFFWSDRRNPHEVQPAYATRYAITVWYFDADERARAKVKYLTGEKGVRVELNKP
Structure (SMILES),IC50 (human PHD2 (PHD2181-417)),Emax at 100 µM (Hep-3B cells)
"O=C(O)c1cnn(-c2nc3ccc(-c4ccc5c(c4)OCO5)cc3c(=O)[nH]2)c1 [Example 207, 1-(6-Benzo[1,3]dioxol-5-yl-4-oxo-3,4-dihydro-quinazolin-2-yl)-1H-pyrazole-4-carboxylic acid]",25.1 nM,84%
"O=C(O)c1cnn(-c2nc3ccc(Oc4cccc(-c5ccccc5)c4)cc3c(=O)[nH]2)c1 [Example 99, 1-[6-(biphenyl-3-yloxy)-4-oxo-3,4-dihydro-quinazolin-2-yl]-1H-pyrazole-4-carboxylic acid]",25.1 nM,81%
"O=C(O)c1cnn(-c2nc3ccc(Oc4ccc5ccccc5c4)cc3c(=O)[nH]2)c1 [Example 43, 1-[6-(Naphthalen-2-yloxy)-4-oxo-3,4-dihydro-quinazolin-2-yl]-1H-pyrazole-4-carboxylic acid]",25.1 nM,76%
"O=C(O)c1cnn(-c2nc3ccc(Cl)cc3c(=O)[nH]2)c1 [Example 153, 1-(6-Chloro-4-oxo-3,4-dihydro-quinazolin-2-yl)-1H-pyrazole-4-carboxylic acid]",39.8 nM,22%
"O=C(O)c1cnn(-c2nc3cc(-c4ccccc4)ccc3c(=O)[nH]2)c1 [Example 184, 1-(4-Oxo-7-phenyl-3,4-dihydro-quinazolin-2-yl)-1H-pyrazole-4-carboxylic acid]",79.4 nM,12%
"O=C(O)c1cnn(-c2nc3ccc(Oc4cc(Cl)ccc4Cl)cc3c(=O)[nH]2)c1 [Example 40, 1-[6-(2,5-Dichloro-phenoxy)-4-oxo-3,4-dihydro-quinazolin-2-yl]-1H-pyrazole-4-carboxylic acid]",25.1 nM,77%
"Cc1cc(C)c2c(=O)[nH]c(-n3cc(C(=O)O)cn3)nc2c1 [Example 145, 1-(5,7-Dimethyl-4-oxo-3,4-dihydro-quinazolin-2-yl)-1H-pyrazole-4-carboxylic acid]",398 nM,16%
"O=C(O)c1cnn(-c2nc3cc(Cl)ccc3c(=O)[nH]2)c1 [Example 1, 1-(7-Chloro-4-oxo-3,4-dihydro-quinazolin-2-yl)-1H-pyrazole-4-carboxylic acid]",50.1 nM,37%
"O=C(O)c1cnn(-c2nc3cc(O)ccc3c(=O)[nH]2)c1 [Example 154, 1-(7-Hydroxy-4-oxo-3,4-dihydro-quinazolin-2-yl)-1H-pyrazole-4-carboxylic acid]",50.1 nM,12%
"CC(C)c1ccc2c(=O)[nH]c(-n3cc(C(=O)O)cn3)nc2c1 [Example 146, 1-(7-Isopropyl-4-oxo-3,4-dihydro-quinazolin-2-yl)-1H-pyrazole-4-carboxylic acid]",126 nM,16%
"O=C(O)c1cnn(-c2nc3cc(Br)ccc3c(=O)[nH]2)c1 [Example 134, 1-(7-Bromo-4-oxo-3,4-dihydro-quinazolin-2-yl)-1H-pyrazole-4-carboxylic acid]",50.1 nM,18%
"O=C(O)c1cnn(-c2nc3cc(Cl)c(Oc4cccc5c4CCCC5)cc3c(=O)[nH]2)c1 [Example 55, 1-[7-Chloro-4-oxo-6-(5,6,7,8-tetrahydro-naphthalen-1-yloxy)-3,4-dihydro-quinazolin-2-yl]-1H-pyrazole-4-carboxylic acid]",31.6 nM,25%
"CC(C)c1cccc2c(=O)[nH]c(-n3cc(C(=O)O)cn3)nc12 [Example 114, 1-(8-Isopropyl-4-oxo-3,4-dihydro-quinazolin-2-yl)-1H-pyrazole-4-carboxylic acid]",251 nM,16%
"O=C(O)c1cnn(-c2nc3cc4c(cc3c(=O)[nH]2)OCCO4)c1 [Example 139, 1-(4-Oxo-3,4,7,8-tetrahydro-[1,4]dioxino[2,3-g]quinazolin-2-yl)-1H-pyrazole-4-carboxylic acid]",35.5 nM,15%
"O=C(O)c1cnn(-c2nc3ccccc3c(=O)[nH]2)c1 [Example 126, 1-(4-Oxo-3,4-dihydro-quinazolin-2-yl)-1H-pyrazole-4-carboxylic acid]",63.1 nM,9%
"Cc1cc2nc(-n3cc(C(=O)O)cn3)[nH]c(=O)c2cc1Oc1c(C)cccc1C [Example 27, 1-[6-(2,6-Dimethyl-phenoxy)-7-methyl-4-oxo-3,4-dihydro-quinazolin-2-yl]-1H-pyrazole-4-carboxylic acid]",20 nM,10%
"COc1cc2nc(-n3cc(C(=O)O)cn3)[nH]c(=O)c2cc1OC [Example 17, 1-(6,7-Dimethoxy-4-oxo-3,4-dihydro-quinazolin-2-yl)-1H-pyrazole-4-carboxylic acid]",200 nM,33%

Structure (SMILES),IC50 (human PHD2 (PHD2181-417)),Emax at 100 µM (Hep-3B cells)
"Cc1ccc(Oc2ccc3nc(-n4cc(C(=O)O)cn4)[nH]c(=O)c3c2)cc1 [Example 47, 1-(4-Oxo-6-p-tolyloxy-3,4-dihydro-quinazolin-2-yl)-1H-pyrazole-4-carboxylic acid]",31.6 nM,95%
"O=C(O)c1cnn(-c2nc3ccc(Oc4ccc(Cl)cc4Cl)cc3c(=O)[nH]2)c1 [Example 39, 1-[6-(2,4-Dichloro-phenoxy)-4-oxo-3,4-dihydro-quinazolin-2-yl]-1H-pyrazole-4-carboxylic acid]",25.1 nM,77%
"CSc1cc2c(=O)[nH]c(-n3cc(C(=O)O)cn3)nc2cc1Cl [Example 158, 1-(7-Chloro-6-methylsulfanyl-4-oxo-3,4-dihydro-quinazolin-2-yl)-1H-pyrazole-4-carboxylic acid]",39.8 nM,15%
"O=C(O)c1cnn(-c2nc3cc(Cl)cc(Cl)c3c(=O)[nH]2)c1 [Example 132, 1-(5,7-Dichloro-4-oxo-3,4-dihydro-quinazolin-2-yl)-1H-pyrazole-4-carboxylic acid]",126 nM,16%
"O=C(O)c1cnn(-c2nc3cc4c(cc3c(=O)[nH]2)OCCCO4)c1 [Example 137, 1-(4-Oxo-3,4,8,9-tetrahydro-7H-6,10-dioxa-1,3-diaza-cyclohepta[b]naphthalen-2-yl)-1H-pyrazole-4-carboxylic acid]",50.1 nM,15%
"Cc1cccc(-c2ccc3nc(-n4cc(C(=O)O)cn4)[nH]c(=O)c3c2)c1 [Example 190, 1-(4-Oxo-6-m-tolyl-3,4-dihydro-quinazolin-2-yl)-1H-pyrazole-4-carboxylic acid]",25.1 nM,91%
"CCc1ccccc1-c1ccc2nc(-n3cc(C(=O)O)cn3)[nH]c(=O)c2c1 [Example 203, 1-[6-(2-Ethyl-phenyl)-4-oxo-3,4-dihydro-quinazolin-2-yl]-1H-pyrazole-4-carboxylic acid]",31.6 nM,77%
"Nc1ccc2nc(-n3cc(C(=O)O)cn3)[nH]c(=O)c2c1 [Example 180, 1-[6-amino-4-oxo-3,4-dihydro-quinazolin-2-yl]-1H-pyrazole-4-carboxylic acid]",63.1 nM,8%
"O=C(O)c1cnn(-c2nc3cc(Cl)c(N4CCc5ccc(Br)cc5C4)cc3c(=O)[nH]2)c1 [Example 85, 1-[6-(7-Bromo-3,4-dihydro-1H-isoquinolin-2-yl)-7-chloro-4-oxo-3,4-dihydro-quinazolin-2-yl]-1H-pyrazole-4-carboxylic acid]",25.1 nM,49%
"O=C(O)c1cnn(-c2nc3cc(F)c(Oc4cccc(C(F)(F)F)c4)cc3c(=O)[nH]2)c1 [Example 95, 1-[7-fluoro-4-oxo-6-(3-trifluoromethyl-phenoxy)-3,4-dihydro-quinazolin-2-yl]-1H-pyrazole-4-carboxylic acid]",20 nM,61%
"O=C(O)c1cnn(-c2nc3cc(Sc4ccccc4)ccc3c(=O)[nH]2)c1 [Example 78, 1-(4-Oxo-7-phenylsulfanyl-3,4-dihydro-quinazolin-2-yl)-1H-pyrazole-4-carboxylic acid]",39.8 nM,5%
"O=C(O)c1cnn(-c2nc3ccc(NCc4cccc(Cl)c4)cc3c(=O)[nH]2)c1 [Example 182, 1-[6-(3-Chloro-benzylamino)-4-oxo-3,4-dihydro-quinazolin-2-yl]-1H-pyrazole-4-carboxylic acid]",25.1 nM,26%
"Cc1ccccc1-c1ccc2c(=O)[nH]c(-n3cc(C(=O)O)cn3)nc2c1 [Example 188, 1-(4-Oxo-7-o-tolyl-3,4-dihydro-quinazolin-2-yl)-1H-pyrazole-4-carboxylic acid]",79.4 nM,11%
"Cc1cc(C)cc(Oc2ccc3nc(-n4cc(C(=O)O)cn4)[nH]c(=O)c3c2)c1 [Example 98, 1-[6-(3,5-dimethyl-phenoxy)-4-oxo-3,4-dihydro-quinazolin-2-yl]-1H-pyrazole-4-carboxylic acid]",20 nM,85%
"Cc1cc(C)cc(Oc2cc3c(=O)[nH]c(-n4cc(C(=O)O)cn4)nc3cc2C)c1 [Example 89, 1-[6-(3,5-dimethyl-phenoxy)-7-methyl-4-oxo-3,4-dihydro-quinazolin-2-yl]-1H-pyrazole-4-carboxylic acid]",25.1 nM,137%
"CC(C)(C)c1ccc(S(=O)(=O)c2cc3c(=O)[nH]c(-n4cc(C(=O)O)cn4)nc3cc2Cl)cc1 [Example 72, 1-[6-(4-tert-Butyl-benzenesulfonyl)-7-chloro-4-oxo-3,4-dihydro-quinazolin-2-yl]-1H-pyrazole-4-carboxylic acid]",50.1 nM,22%
